Test [1] has as its system dendritic cells (CD11c+MHCII+F4/80−). The experiment in a line: Uptake of TAMRA labelled peptides by dendritic cells in vivo (flow cytometry of peritoneal lavage fluid). The arrangement: species or system C57BL/6 mice. Particulars: TAMRA labelled peptide, i.p. injection, peritoneal lavage 20 h after injection. Here is the method:
(§1) Antibodies and Flow Cytometry: Antibodies were purchased from eBioscience unless specified. Flow cytometry was performed using LSRII blue (BD). FlowJo (Tree Star Inc.) was used in the analysis of flow data. For analysis of cell recruitment to the peritoneal cavity, cells isolated from i.p. lavage fluid were stained and analyzed as described.
(§2) To examine whether the epitope-bearing nanofibers could be internalized by APCs, C57BL/6 mice were immunized via i.p. injection with 1×PBS, or PEPvIII or P-C peptides fluorescently labelled with TAMRA (FIG. 8). […] The peritoneal lavage fluid was collected 20 h after injections, to analyze for the percentage of TAMRA positive DCs (CD11c^+MHCII^+F4/80^−) and MΦ (CD11c^−F4/80^+) using flow cytometry (FIG. 18).
Background: In flow cytometry, cells or beads pass a laser one at a time.

Test [2] has as its system macrophages (CD11c−F4/80+). The experiment in a line: Uptake of TAMRA labelled peptides by macrophages in vivo (flow cytometry of peritoneal lavage fluid). The arrangement: species or system C57BL/6 mice. The following applies: TAMRA labelled peptide, i.p. injection, peritoneal lavage 20 h after injection. Here is the method: as §1, §2
Test [3] concerns PEPvIII epitope (EGFRvIII). The experiment in a line: PEPvIII-specific IgG antibody titers in sera after subcutaneous immunization (ELISA). Type of test: in vivo, C57BL/6 mice. Particulars: for PEPvIII-specific IgG antibody response: s.c. primary injection week 0 (2×10^−3 M PEPvIII epitope, 100 μL), half-dose boosts weeks 4 and 7, sera over 18 weeks. How it is done: Vaccine Preparation: To prepare PEPvIII-Coil29 peptide fibers solutions for immunization, the lyophilized peptides were first dissolved in 10×10^−3 M sterile acetate buffer (pH 4) at 8×10^−3 M and incubated overnight at […]. The peptide solutions were subsequently diluted to 2×10^−3 M in 1×PBS, and incubated 3 h at room temperature prior to immunization. For coassembled peptide fiber formation, PEPvIII-Coil29 and PADRE-Coil29 were weight out separately, and mixed on vortex for 5 mins before dissolved in 10×10^−3 M sterile acetate buffer (pH 4), and diluted in the same procedure as PEPvIII-Coil29 nanofiber preparation. To prepare CFA/IFA peptide emulsion for immunization, PEPvIII peptide was initially dissolved in 4×10^−3 M in sterile water, and equal volume of adjuvant solution was mixed in with peptide solution and vortexed for 45 min to bring the final concentration of peptide to 2×10^−3 M for injection.
Mice and Immunizations: Female 057B1/6 mice were purchased from Harlan laboratory and housed at the animal facility at the University of Chicago and Duke University. All procedures were approved by both the University of Chicago Institutional Animal Care and Use Committee (protocol 71-900) and the Duke Institutional Animal Care and Use Committee (protocol A314-15-12 19N). Mice (6-12 weeks old; age-matched within each experiment) were randomly assigned in groups of five for each condition based on previous findings that this size was sufficient to distinguish responding versus nonresponding groups. Anesthetized mice were immunized subcutaneously with the indicated solutions (2×50 μL at the shoulders) and boosted where indicated with half-doses (2×25 μL) after 4 weeks and 7 weeks. Sera were collected from the submandibular (cheek) vein for analysis via ELISA. Mice were sacrificed 7 d after the final immunization, and the cells from the draining lymph nodes (axillary, brachial, and inguinal) were collected.
ELISA for Serum Antibodies: Serum was analyzed for antigenspecific Ig (Anti-IgG (H+L), Jackson Immuno Research, Cat #115-035-003) or IgG (gamma-specific, #115-035-071) by ELISA, as previously described (Egelman, E. H., et al. Structure 2015, 23, 280-28). To detect E214-specifi c antibodies, the plate was coated with 5 μg/mL E214-ahx-C (provided by Merck) in PBS or with 5 μg/mL streptavidin (Sigma #85878) followed by 10 μg/mL E214-PEG-biotin in PBS. […]
Peptides were synthesized by solid phase peptide synthesis by methods known in the art. […] Antibody titers were determined using ELISA.
We subsequently investigated the immunogenicity of the Coil29 peptide platform. […] Sera were collected from all the groups at predesignated dates over 18 weeks, and analyzed for peptide-specific antibody titers via ELISA (FIG. 9). […]
(In general: In an ELISA, binding on a coated surface is turned into a signal by an enzyme label.)

In test [4] the test system is splenocytes. The experiment in a line: T-cell ELISPOT (IL-4, IFNγ) on splenocytes of immunized mice. Format: cell-based, C57BL/6 mice. Here is the method:
T-Cell ELIspot: T-cell ELIspots were performed as described. Briefly, 0.25 million cells from the spleen were plated in each well of a 96-well ELIspot plate (Millipore, MSIPS4510), in 200 μL per well. The cells were then stimulated with peptide or left untreated as negative controls. […] Streptavidinalkaline phosphatase (3310-10) was purchased from Mabtech. Spots were developed using substrate Sigmafast BCIP/NBT (Sigma, B5655). Plates were imaged and enumerated using an ELISPOT reader (Cellular Technology, Ltd).
We further analyzed how the PADRE epitope dosing could impact the humoral response in the current platform (FIG. 10). Four groups of mice were immunized with Coil29 nanofibers formulated with different PADRE epitope concentrations ranging from 0 to 0.5×10^−3M in final concentration, and the PEPvIII-specific total IgG titers were monitored over 17 weeks (FIG. 10A). […] However, the difference in antibody response in relationship with PADRE dosing could possibly be caused by several reasons, including the use of a different B cell epitope. We are currently investigating the mechanism of this observation. It highlighted the significance in future application where the formulation of nanofibers should be fine-tuned for different epitopes induce optimal response. […]

Test [5] has as its system SGSG-Coil29 peptide. The experiment in a line: IgG antibody response against the carrier SGSG-Coil29 sequence (ELISA). Format: in vivo, C57BL/6 mice. Particulars: boosts weeks 4 and 7. Here is the method: Two boost containing half the primary immunization doses were given on week 4 and week 7 for both groups. Sera were collected to measure the IgG production against SGSG-Coil29 peptide using ELISA.
Antibody responses against the carrier (SGSG Coil29 sequence) were also measured by ELISA for both PEPvIII-Coil29 group and PEPvIII-Coil29/PADRE-Coil29 group (FIG. 4).
We subsequently investigated the immunogenicity of the Coil29 peptide platform. Four groups of C57BL/6 mice were immunized subcutaneously with same amount of epitope peptides (2×10^−3M of PEPvIII epitopes, 100 μL per mouse) on week 0, and boosted twice with half of the primary doses (2×10^−3M of PEPvIII epitopes, 50 μL per mouse) at weeks 4 and 7. Mice primed with an emulsion of PEPvIII with complete Fruend's adjuvant (CFA), and boosted with PEPvIII and incomplete Fruend's adjuvant (IFA) served as a positive control. Sera were collected from all the groups at predesignated dates over 18 weeks, and analyzed for peptide-specific antibody titers via ELISA (FIG. 9). […] Strikingly, the second boost at week 7 elevated the antibody titer nearly 100-fold, with the highest titer level reaching about 10^5 at week 9. […] The considerable difference in antibody response between P-C and P-C/P groups underlined the importance of the T cell epitope (PADRE) in promoting antibody responses with the Coil29 platform. […]

Entries after “also recorded” stand apart in the source; their conditions may differ.

In the case of “NH2-LEEKKGNYVVTDH-Amide [PEPvIII, reference compound]”, the “percentage of TAMRA positive dendritic cells” value in test [1] is listed as “statistically indistinguishable from the 1×PBS negative control group”. Besides, the “percentage of TAMRA positive macrophages” value in test [2] was “statistically indistinguishable from the 1×PBS negative control group”. For the same substance, in test [3], the “PEPvIII-specific IgG antibody response” value was “did not elicit antibody responses; also recorded: failed to elicit any antibody response”.

For “NH2-aKXVAAVVTLKAa-Amide [PADRE, reference compound]”, the “concentration above which the ELISPOT response saturated” value in test [4] (preliminary experiments) is “above 0.5×10^−6 M”.

For “NH2-LEEKKGNYVVTDH SGSG QARILEADAEILRAYARILEAHAEILRAQ-Amide (H-LEEKKGNYVVTDHSGSGQARILEADAEILRAYARILEAHAEILRAQ-NH2) [P-C]”, the “PEPvIII-specific total IgG titers, PADRE dosing study” value in test [3] (PADRE 0 or 0.05×10^−3 M final concentration, monitored over 17 weeks) is given as “negligible levels of IgG”. Besides, the entries for the “PEPvIII-specific IgG antibody response” value in test [3] and in test [3] (listed as PEPvIII-Coil29) were “unable to raise a significant level of epitope-specific IgG antibody titer” and “very weak responses”, respectively. Moreover, the “IgG antibody response against SGSG-Coil29” value was “gradually diminished to a negligible level after the total IgG titers peaked at week 9” in test [5] and “self-limiting, returning to baseline levels after 16 weeks” in test [5] (listed as PEPvIII-Coil29). In test [4] (splenocytes collected on week 18, stimulated with PADRE or PEPvIII peptide), the “T cell IFNγ and IL4 response (ELISPOT)” value is “responded to neither PADRE peptide nor PEPvIII peptide”.
